Data as given in patent US20070244076A1, “Site and Rate Selective Prodrug Formulations of D609 with Antioxidant and Anticancer Activity” (priority 2003, published 2007).
Values joined by “and” are separate entries in the source; they are usually repeats but may differ in a detail not shown here. Identical values can stand only once.

Assays:
U937 cells = assay: U937 apoptosis, sub-G0/1 cells by flow cytometry; format: cell-based, Human; settings: 177 μM, 24 h
Protocol: Apoptosis Assays: U937 cells (5×10^5/ml) were cultured with vehicle (0.5% DMSO) or 177 μM D609 or prodrug 2. After 24 h incubation, the cells were harvested, washed and then fixed in 70% ethanol at 4° C. for 24 h. They were stained with a PI staining solution (PBS containing PI 50 μg/ml; RNase A 100 U/ml; and 0.1 mM EDTA) for 2 h at room temperature before flow cytometric analysis (10,000 events/sample). The percentage of apoptotic cells was determined by quantification of the sub-G0/1 population using a FACS Caliber (Becton Dickinson, San Jose, Calif.).

[1] = rat, plasma
Protocol: At various times of the incubation, the hydrolysis of prodrug 2 was monitored by HPLC analysis, and the release of D609 was determined by measuring the colorimetric reaction of D609 with DTNB (3 mM). The data are presented as mean±SE of three independent assays.
After incubation at 37° C., aliquots (100 μl) of the plasma were removed at various times and immediately mixed with an equal volume of DTNB in acetonitrile (3 mM DTNB). Acetonitrile was used to quickly inactivate plasma esterases and to precipitate plasma proteins. After removal of the precipitated plasma proteins by centrifugation, the concentrations of the D609 prodrug and D609 in the clear plasma supernatants were determined by HPLC and DTNB assays, respectively, as described above.

A20 lymphoma = settings: 50 mg/kg i.v., alone or with 6.0 Gy irradiation
Protocol: A20 lymphoma was induced in normal BALB/c male mice by the tail vein injection of 5×10^5 cultured A20 cells. Two days later, the mice were assigned to groups of 10 mice each and received i.v. 1) saline, 2) 50 mg/kg D609, 3) saline plus 6.0 Gy irradiation or 4) D609 plus irradiation. Total body irradiation was given 10 min after D609 injection. Survival of each mouse was then followed by daily monitoring and weighing (5×/week).

lymphocytes = assay: IR-induced oxidative events in lymphocytes; format: cell-based; settings: pre-incubation of lymphocytes
[2] = target: phospholipase C (Type XI from B. cereus) (Bacillus cereus, UniProt P09598); format: biochemical; settings: 2 hrs at 37° C., pNPP 40 mM
Sequence of phospholipase C (Type XI from B. cereus) (P09598 39-283 limits assumed): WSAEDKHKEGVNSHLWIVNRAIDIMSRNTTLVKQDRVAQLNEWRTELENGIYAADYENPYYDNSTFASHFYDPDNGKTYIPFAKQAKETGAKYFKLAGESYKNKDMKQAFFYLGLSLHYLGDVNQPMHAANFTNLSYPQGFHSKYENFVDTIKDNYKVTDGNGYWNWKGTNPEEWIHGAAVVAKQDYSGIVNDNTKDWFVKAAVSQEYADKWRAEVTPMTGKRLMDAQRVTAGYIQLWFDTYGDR
Protocol: (§1) In this study, p-nitrophenyl-phosphorylcholine (pNPP, 40 mM) was incubated with 2 U/ml phospholipase C (Type XI from B. cereus) in the presence or absence of various concentrations of inhibitors for 2 hrs at 37° C. The amount of the cleaved substrate pNPP was quantified by determination of the optical density at 410 nm using an ELISA reader. The results are expressed as percent of vehicle control and presented as means±SEM (n=3) (FIG. 9A). NBD-C6-ceramide and PC were incubated with U937 cell lysates containing 50 μg protein in the presence or absence of various concentrations of inhibitors for 30 min at 30° C. The formation of NBD-C6-sphingomyelin as analyzed by TLC and quantified by determination of the fluorescent intensity of NBD-C6-sphingomyelin using a phosphorimager. The results are expressed as percent of vehicle control (FIG. 9B). U937 cells were incubated with different concentrations of inhibitors for 48 hours.

[3] = test system: sphingomyelin synthase (SMS); assay: SMS activity in U937 cell lysates with inhibitor added (cell lysate-based in vitro assay); format: biochemical, Human; settings: 30 min at 30° C.
Protocol: as §1

[4] = Cyclic voltammetry, reducing power (E1/2) at physiological pH; format: physicochemical; settings: 2 mM in PBS (pH 7.4)
Protocol: D609 was dissolved in PBS (pH 7.4) at 2 mM concentration, and E1/2 was measured using a cyclic voltammetry apparatus (Model CV-2, from BAS, West Lafayette, 1N).

various tumor cells = assay: IR-induced apoptosis of tumor cells; format: cell-based
[5] = test system: ceramide and DAG levels in U937 cells; assay: Ceramide and DAG levels in U937 cells by DAG kinase assay; format: cell-based, Human; settings: 2 hrs
Protocol: To validate if inhibition of SMS may mediate D609-induced tumor cell death, the cellular level of SMS activity in U937 cells treated with vehicle or D609 were studied. […] NBD-C6-ceramide and PC were incubated with the cell lysates containing 50 μg proteins for 30 min at 30° C. The formation of NBD-C6-sphingomyelin was analyzed by TLC and quantified by determination of the fluorescent intensity of NBD-C6-sphingomyelin using a phosphoimager. The results, shown in FIGS. 10B-10D, are expressed as percent of the control cultures with vehicle and presented as means±SEM (n=3). […] The levels of ceramide (FIG. 10B) and DAG (FIG. 10C) were analyzed by the DAG kinase assay, normalized to the levels of cellular phospholipid and expressed as pmole/nmole phophate (pi) or the ratio of ceramide and DAG (FIG. 10D). The results represent means±SEM (n=3).

[6] = test system: Mouse splenic lymphocytes; assay: IFNγ production of ConA-stimulated lymphocytes, ELISA; format: cell-based
Protocol: (§2) Studies were conducted to determine whether D609 enhances mouse splenic lymphocyte mitogenic responses and IFNγ production. Mouse splenic lymphocytes at 2.5×10^6/ml were stimulated with LPS or ConA in the presence or absence of D609. The cell proliferation was measure by 3H-thymidine incorporation after the cells were cultured with LPS (FIG. 8A) or with ConA (FIG. 8B). […] In addition, the supernatants of ConA-stimulated lymphocyte cultures were harvested at various times and measured for IFNγ production by ELISA (FIG. 8C).

BALB/c mice = assay: Protection of mice from IR-induced lethality; format: in vivo; settings: 50 mg/kg iv 10 min prior to 6.5 or 8.5 Gy total body IR; 30-day observation
Protocol: BALB/c mice were exposed to 6.5 or 8.5 Gy total body IR 10 minutes after they received a single dose (50 mg/kg) of iv injection of D609 or vehicle (saline) through the tail vein. The death of these mice was recorded during a 30-day observation period after IR.
Moreover, when D609 (50 mg/kg, iv) was administered to mice 10 min prior to total body

[7] = test system: leukemia cells (U937, Jurkat, SupT13 and A20), solid tumor cells (HT1080); assay: MTT cell viability, leukemia and solid tumor cell panel; format: cell-based; settings: 48 hours
From the text: The results, shown in FIG. 7A and FIG. 7B, are expressed as a percent of vehicle control and presented as means±SEM (n=3).

A20 cells = assay: MTT cell viability and growth, A20 cells
Protocol: The cell viability was analyzed by MTT assay after A20 cells were cultured with vehicle or different concentrations of D609 for 48 hrs. […] A20 cells were untreated (Control), irradiated (IR 4 Gy), incubated with D609 alone, or treated with both D609 and IR. The cell viability and/or proliferation were measured by MTT assay at different times after the cells were placed into well of 96-well plate (2×10^4/0.2 ml/well). The results are expressed as means±SEM (n=3) (FIG. 13B).

[8] = test system: Mouse splenic lymphocytes; assay: Mitogen-stimulated lymphocyte proliferation, 3H-thymidine incorporation; format: cell-based; settings: 188 μM=50 μg/ml
Protocol: as §2

With `CCCC(=O)OCSC(=S)OC1CC2CC1C1CCCC21` (stereo not drawn) [Prodrug 2, S-methyleneoxybutyryl D609] the “apoptosis (sub-G0/1 cells)” value (U937 cells) was “significantly greater reduction in cell viability and increase in the sub-G0/1 cells than D609-treated cells” and the T1/2 [1] was 7.559 s.

With `S=C([S-])OC1CC2CC1C1CCCC21.[K+]` (stereo not drawn) [Prodrug D609, Tricyclodecan-9-yl-xanthogenate] the therapeutic response (A20 lymphoma) was “no significant therapeutic response”, the “IR-induced events (ROS production, decrease in GSH, oxidative damage to proteins and lipids, NF-κB activation)” value (lymphocytes) was “significant diminution” and the “inhibition of PC-PLC activity” value [2] was “dose-dependently inhibited”. For the same compound, the “inhibition of SMS activity” value [3] was “inhibited the SMS activity in a dose-dependent manner”, the E1/2 [4] was 350 mV and the “apoptosis (sub-G0/1 cells)” value (U937 cells) was “capable of inducing apoptosis”. For the same compound, the “protection of tumor cells from IR-induced apoptosis” value (various tumor cells) was “failed to protect them from IR-induced apoptosis”, the “level of DAG” value [5] was “decrease in that of DAG” and the level of ceramide [5] was “increase in the level of ceramide”. For the same compound, the “ratio between ceramide and DAG” value [5] was “dramatically elevated”, the “production of interferon-γ (IFNγ)” value [6] was “significantly augmented” and the “protection from IR-induced lethality” value (BALB/c mice) was “protected the mice from IR-induced lethality”. For the same compound, the cell viability [7] was “dose-dependent reduction in cell viability”, the LD50 (A20 cells; 48 hrs) was “about 106 μM and ~28.2 μg/ml” and the “response of A20 cells to IR” value (A20 cells; IR 4 Gy) was “enhanced their response to IR”. The “mitogenic responses to LPS or ConA” value [8] was “enhanced their mitogenic responses”.
